Results on eight molecules are retold here after ChEMBL document CHEMBL4130363, “Synthesis and pharmacological evaluation of benzamide derivatives as potent and selective sigma-1 protein ligands” (Eur J Med Chem, 2017).

The target of experiment [1] is T1, 5-hydroxytryptamine receptor 1A (Homo sapiens) (UniProt P08908).
T1 sequence (whole entry): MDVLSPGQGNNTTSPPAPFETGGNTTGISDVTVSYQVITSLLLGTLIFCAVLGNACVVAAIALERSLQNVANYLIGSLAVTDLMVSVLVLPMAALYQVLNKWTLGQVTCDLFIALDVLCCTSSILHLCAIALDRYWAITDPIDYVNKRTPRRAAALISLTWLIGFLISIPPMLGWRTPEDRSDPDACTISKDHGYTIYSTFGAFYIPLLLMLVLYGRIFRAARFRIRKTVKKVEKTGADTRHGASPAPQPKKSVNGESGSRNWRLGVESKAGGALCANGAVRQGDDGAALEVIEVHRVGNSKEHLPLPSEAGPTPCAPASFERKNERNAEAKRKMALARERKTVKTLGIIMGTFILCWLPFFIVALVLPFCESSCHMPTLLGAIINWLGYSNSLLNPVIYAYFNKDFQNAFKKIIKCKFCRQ
The experiment in a line: Antagonist activity at recombinant human 5-HT1A assessed as inhibition of agonist-induced cAMP levels at 10 uM by HTRF assay. The class given is functional.

The target of experiment [2] is 5-hydroxytryptamine receptor 1B (Homo sapiens) (UniProt P28222). Kind of experiment: Agonist activity at recombinant human 5-HT1B at 10 uM by GTPgamma[35S] binding-based assay relative to agonist. The class given is functional.
5-hydroxytryptamine receptor 1B (Homo sapiens), sequence (P28222 whole entry): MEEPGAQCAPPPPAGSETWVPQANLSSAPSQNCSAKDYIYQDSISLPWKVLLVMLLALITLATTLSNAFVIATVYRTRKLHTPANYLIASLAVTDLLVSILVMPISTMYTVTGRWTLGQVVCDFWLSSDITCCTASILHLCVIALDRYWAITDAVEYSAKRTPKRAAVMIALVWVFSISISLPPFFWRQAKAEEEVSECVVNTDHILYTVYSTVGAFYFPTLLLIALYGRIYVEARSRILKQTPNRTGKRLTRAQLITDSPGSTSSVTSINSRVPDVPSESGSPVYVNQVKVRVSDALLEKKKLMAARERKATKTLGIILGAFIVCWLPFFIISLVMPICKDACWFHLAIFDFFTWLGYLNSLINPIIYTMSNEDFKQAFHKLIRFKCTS
Experiment [3] concerns the target 5-hydroxytryptamine receptor 2B (Homo sapiens) (UniProt P41595). The experiment in a line: Agonist activity at recombinant human 5-HT2B at 10 uM by aequorin reporter based assay relative to agonist. The class given is functional.
Experiment [4] concerns the target 5-hydroxytryptamine receptor 6 (Homo sapiens) (UniProt P50406). Kind of experiment: Antagonist activity at recombinant human 5-HT6R assessed as inhibition of agonist-induced cAMP induction at 10 uM by HTRF assay. It counts as functional.
Experiment [5] concerns the target 5-hydroxytryptamine receptor 7 (Homo sapiens) (UniProt P34969). The experiment in a line: Agonist activity at recombinant human 5-HT7R assessed as induction of cAMP levels at 10 uM by HTRF assay relative to agonist. It counts as functional.
The target in experiment [6] is Adenosine receptor A2a (Homo sapiens) (UniProt P29274). The experiment in a line: Agonist activity at recombinant human adenosine A2A receptor assessed as induction of cAMP levels at 10 uM by HTRF assay relative to agonist. It counts as functional.
Adenosine receptor A2a (Homo sapiens), sequence (P29274 whole entry): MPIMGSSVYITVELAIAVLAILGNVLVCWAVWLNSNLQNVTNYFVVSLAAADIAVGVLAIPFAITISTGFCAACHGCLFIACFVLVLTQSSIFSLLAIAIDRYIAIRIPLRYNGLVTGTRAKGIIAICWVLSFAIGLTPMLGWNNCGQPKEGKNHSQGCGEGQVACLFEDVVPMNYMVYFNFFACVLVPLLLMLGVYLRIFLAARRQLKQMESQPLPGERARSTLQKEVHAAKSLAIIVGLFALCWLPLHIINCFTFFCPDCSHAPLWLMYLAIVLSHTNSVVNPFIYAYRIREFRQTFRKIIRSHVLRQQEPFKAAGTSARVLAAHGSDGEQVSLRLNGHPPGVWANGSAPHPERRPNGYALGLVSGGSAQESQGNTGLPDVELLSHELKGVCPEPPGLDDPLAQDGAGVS
For experiment [7], the target named is Beta-1 adrenergic receptor (Homo sapiens) (UniProt P08588). The experiment in a line: Agonist activity at recombinant human beta-1 adrenergic receptor assessed as induction of cAMP levels at 10 uM by HTRF assay relative to agonist. It counts as functional.
Beta-1 adrenergic receptor (Homo sapiens), sequence (P08588 whole entry, looked up): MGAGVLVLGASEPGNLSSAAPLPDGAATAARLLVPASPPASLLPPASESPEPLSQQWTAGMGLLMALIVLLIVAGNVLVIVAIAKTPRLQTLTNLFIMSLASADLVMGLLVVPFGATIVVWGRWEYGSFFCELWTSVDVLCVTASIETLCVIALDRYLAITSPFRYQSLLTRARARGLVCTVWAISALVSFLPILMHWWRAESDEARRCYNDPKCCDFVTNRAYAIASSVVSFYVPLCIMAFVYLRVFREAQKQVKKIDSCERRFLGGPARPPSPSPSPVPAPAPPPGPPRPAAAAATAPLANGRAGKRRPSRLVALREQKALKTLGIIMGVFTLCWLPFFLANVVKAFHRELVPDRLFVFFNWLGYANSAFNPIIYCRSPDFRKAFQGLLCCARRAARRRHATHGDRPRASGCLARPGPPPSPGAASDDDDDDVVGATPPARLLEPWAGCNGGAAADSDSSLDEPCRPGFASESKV
Experiment [8] has as its target Beta-2 adrenergic receptor (Homo sapiens) (UniProt P07550). Kind of experiment: Agonist activity at recombinant human beta-2 adrenergic receptor assessed as induction of cAMP levels at 10 uM by HTRF assay relative to agonist. It counts as functional.
For experiment [9], the target named is T2, Alpha-1A adrenergic receptor (Homo sapiens) (UniProt P35348).
T2 sequence (whole entry): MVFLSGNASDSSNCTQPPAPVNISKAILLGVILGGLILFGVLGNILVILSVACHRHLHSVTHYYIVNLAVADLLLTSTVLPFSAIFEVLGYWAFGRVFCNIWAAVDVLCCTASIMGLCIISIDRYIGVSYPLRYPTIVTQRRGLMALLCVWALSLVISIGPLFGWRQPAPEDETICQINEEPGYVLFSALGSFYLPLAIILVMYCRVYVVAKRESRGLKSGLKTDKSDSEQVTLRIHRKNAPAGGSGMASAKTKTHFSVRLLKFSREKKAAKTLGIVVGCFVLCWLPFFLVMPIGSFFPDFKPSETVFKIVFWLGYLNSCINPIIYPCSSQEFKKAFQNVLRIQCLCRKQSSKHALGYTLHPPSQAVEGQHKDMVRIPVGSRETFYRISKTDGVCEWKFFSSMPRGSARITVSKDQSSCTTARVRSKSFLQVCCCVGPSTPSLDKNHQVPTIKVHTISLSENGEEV
Kind of experiment: Agonist activity at recombinant human alpha-1a adrenergic receptor […] at 10 uM by aequorin reporter based assay relative to agonist. The class given is functional.

The target of experiment [10] is D(1A) dopamine receptor (Homo sapiens) (UniProt P21728). Kind of experiment: Agonist activity at recombinant human dopamine D1 receptor assessed as induction of cAMP levels at 10 uM by HTRF assay relative to agonist. It counts as functional.
D(1A) dopamine receptor (Homo sapiens), sequence (P21728 whole entry): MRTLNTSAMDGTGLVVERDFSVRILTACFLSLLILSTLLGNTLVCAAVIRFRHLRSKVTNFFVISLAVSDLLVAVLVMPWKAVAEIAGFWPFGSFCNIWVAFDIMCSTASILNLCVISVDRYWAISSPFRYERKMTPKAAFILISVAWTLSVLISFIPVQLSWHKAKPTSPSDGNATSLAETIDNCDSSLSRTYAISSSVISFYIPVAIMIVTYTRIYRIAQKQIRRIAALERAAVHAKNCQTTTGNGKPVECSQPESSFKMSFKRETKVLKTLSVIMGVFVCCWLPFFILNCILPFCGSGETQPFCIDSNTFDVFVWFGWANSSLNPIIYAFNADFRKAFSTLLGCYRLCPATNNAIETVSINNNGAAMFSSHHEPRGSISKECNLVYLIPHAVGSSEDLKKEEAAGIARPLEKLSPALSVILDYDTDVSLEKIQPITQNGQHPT
The target of experiment [11] is D(2) dopamine receptor (Homo sapiens) (UniProt P14416). The experiment in a line: Antagonist activity at recombinant human dopamine D2L receptor assessed as inhibition of agonist-induced effect at 10 uM by GTPgamma[35S] binding-based assay.
D(2) dopamine receptor (Homo sapiens), sequence (P14416 whole entry): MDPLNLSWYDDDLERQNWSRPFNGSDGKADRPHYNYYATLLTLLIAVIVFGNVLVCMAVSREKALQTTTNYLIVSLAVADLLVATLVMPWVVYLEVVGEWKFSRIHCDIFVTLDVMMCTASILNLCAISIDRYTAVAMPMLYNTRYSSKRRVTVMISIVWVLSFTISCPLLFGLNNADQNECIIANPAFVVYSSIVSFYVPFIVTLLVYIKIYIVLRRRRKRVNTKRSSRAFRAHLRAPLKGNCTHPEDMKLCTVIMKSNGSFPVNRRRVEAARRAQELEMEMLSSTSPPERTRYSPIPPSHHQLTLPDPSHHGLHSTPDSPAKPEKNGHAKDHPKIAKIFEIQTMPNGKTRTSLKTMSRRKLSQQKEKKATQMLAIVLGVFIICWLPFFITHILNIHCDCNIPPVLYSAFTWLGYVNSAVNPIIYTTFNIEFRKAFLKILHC
The target of experiment [12] is T3, Muscarinic acetylcholine receptor M1 (Homo sapiens) (UniProt P11229).
T3 sequence (whole entry): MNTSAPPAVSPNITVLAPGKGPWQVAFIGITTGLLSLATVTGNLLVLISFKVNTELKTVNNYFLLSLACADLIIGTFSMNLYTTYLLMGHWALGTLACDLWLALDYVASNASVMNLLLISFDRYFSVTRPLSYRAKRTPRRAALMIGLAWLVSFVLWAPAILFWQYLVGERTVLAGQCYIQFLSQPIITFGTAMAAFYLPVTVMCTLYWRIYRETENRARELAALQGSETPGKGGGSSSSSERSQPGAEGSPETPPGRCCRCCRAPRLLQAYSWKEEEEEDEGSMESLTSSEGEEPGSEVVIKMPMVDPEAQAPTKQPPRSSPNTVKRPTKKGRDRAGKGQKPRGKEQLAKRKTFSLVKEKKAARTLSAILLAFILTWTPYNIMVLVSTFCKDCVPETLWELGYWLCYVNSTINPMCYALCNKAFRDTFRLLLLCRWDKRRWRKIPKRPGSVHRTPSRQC
Kind of experiment: Antagonist activity at recombinant human muscarinic M1 receptor assessed as inhibition of agonist-induced effect at 10 uM by aequorin reporter based assay. It counts as functional.

Experiment [13] deals with T4, Substance-K receptor (Homo sapiens) (UniProt P21452).
T4 sequence (whole entry): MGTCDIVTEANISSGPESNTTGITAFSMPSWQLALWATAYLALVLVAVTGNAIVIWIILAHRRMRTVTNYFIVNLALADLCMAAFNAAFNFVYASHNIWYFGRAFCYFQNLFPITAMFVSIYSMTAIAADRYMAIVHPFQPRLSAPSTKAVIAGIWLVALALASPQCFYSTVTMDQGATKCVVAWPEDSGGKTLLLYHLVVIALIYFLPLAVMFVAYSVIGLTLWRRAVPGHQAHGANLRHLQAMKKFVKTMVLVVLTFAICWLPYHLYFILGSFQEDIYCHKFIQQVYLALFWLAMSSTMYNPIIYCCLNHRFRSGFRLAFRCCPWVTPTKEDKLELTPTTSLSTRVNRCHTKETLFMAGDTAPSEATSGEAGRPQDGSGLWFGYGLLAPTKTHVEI
The experiment in a line: Agonist activity at recombinant human NK2R assessed at 10 uM by aequorin reporter based assay relative to agonist. The class given is functional.

Experiment [14] has as its target Kappa-type opioid receptor (Homo sapiens) (UniProt P41145). The experiment in a line: Antagonist activity at human kappa-type opioid receptor assessed as inhibition of agonist-induced effect at 10 uM by GTPgamma[35S] binding-based assay. The class given is functional.
For experiment [15], the target named is Vasopressin V1a receptor (Homo sapiens) (UniProt P37288). The experiment in a line: Agonist activity at recombinant human V1A receptor at 10 uM by aequorin reporter based assay relative to agonist. The class given is functional.
Vasopressin V1a receptor (Homo sapiens), sequence (P37288 whole entry, looked up): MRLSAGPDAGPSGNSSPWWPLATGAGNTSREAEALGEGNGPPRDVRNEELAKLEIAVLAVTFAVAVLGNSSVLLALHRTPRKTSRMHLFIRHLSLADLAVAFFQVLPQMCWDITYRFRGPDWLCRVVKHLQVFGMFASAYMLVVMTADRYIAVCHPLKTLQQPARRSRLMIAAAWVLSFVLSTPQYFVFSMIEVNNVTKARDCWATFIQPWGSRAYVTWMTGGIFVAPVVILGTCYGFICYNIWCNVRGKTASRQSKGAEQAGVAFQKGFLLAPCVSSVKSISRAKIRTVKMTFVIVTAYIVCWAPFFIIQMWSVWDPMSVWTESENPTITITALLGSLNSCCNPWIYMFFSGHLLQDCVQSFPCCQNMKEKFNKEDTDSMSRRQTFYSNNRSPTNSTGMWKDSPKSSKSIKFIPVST

5-hydroxytryptamine receptor 2B (Homo sapiens), sequence (P41595 whole entry): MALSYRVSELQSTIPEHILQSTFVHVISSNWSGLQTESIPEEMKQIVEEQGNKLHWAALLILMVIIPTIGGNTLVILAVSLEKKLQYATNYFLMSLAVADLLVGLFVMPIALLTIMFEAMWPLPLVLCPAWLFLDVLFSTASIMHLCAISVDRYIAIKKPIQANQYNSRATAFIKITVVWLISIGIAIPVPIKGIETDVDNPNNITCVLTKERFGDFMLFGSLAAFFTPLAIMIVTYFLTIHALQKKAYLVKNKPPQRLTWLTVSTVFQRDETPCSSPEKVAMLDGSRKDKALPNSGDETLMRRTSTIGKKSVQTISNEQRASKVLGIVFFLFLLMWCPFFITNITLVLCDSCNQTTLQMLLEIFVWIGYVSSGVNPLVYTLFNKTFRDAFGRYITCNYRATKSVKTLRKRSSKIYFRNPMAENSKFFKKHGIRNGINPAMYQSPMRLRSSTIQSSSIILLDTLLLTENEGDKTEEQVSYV
5-hydroxytryptamine receptor 7 (Homo sapiens), sequence (P34969 whole entry): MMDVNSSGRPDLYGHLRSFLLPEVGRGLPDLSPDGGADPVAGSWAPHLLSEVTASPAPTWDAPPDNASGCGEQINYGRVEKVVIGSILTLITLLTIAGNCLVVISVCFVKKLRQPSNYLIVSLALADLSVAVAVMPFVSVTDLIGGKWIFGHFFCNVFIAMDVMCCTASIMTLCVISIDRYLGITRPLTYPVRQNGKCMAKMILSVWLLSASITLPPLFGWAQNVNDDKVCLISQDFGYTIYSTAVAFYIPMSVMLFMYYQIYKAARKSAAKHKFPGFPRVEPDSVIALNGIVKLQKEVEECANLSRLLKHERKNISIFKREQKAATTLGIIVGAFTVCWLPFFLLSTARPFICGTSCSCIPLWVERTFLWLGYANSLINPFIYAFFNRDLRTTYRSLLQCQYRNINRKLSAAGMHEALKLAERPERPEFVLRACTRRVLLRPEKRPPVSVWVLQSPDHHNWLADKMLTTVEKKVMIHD
5-hydroxytryptamine receptor 6 (Homo sapiens), sequence (P50406 whole entry): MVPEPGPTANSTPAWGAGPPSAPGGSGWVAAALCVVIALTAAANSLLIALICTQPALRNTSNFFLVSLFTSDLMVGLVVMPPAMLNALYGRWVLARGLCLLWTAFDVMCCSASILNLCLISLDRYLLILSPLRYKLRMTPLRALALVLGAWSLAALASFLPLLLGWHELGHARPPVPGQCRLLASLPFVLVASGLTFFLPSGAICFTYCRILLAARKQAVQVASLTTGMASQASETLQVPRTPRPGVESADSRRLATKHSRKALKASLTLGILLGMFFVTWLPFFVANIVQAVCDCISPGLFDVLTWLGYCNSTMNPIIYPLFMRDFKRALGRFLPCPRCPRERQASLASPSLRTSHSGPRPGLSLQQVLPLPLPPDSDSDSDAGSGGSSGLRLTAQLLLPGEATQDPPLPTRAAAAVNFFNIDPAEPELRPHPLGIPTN
Kappa-type opioid receptor (Homo sapiens), sequence (P41145 whole entry): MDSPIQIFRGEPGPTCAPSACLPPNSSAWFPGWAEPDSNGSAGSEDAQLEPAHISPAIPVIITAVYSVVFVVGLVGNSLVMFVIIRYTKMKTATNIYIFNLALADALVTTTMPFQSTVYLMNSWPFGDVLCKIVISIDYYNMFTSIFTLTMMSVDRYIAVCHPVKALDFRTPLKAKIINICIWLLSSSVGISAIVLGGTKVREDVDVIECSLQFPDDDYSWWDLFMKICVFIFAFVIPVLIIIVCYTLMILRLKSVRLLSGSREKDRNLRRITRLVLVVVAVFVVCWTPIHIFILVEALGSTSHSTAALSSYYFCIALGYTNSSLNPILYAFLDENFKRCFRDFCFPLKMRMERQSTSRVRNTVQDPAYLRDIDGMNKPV
Beta-2 adrenergic receptor (Homo sapiens), sequence (P07550 whole entry, looked up): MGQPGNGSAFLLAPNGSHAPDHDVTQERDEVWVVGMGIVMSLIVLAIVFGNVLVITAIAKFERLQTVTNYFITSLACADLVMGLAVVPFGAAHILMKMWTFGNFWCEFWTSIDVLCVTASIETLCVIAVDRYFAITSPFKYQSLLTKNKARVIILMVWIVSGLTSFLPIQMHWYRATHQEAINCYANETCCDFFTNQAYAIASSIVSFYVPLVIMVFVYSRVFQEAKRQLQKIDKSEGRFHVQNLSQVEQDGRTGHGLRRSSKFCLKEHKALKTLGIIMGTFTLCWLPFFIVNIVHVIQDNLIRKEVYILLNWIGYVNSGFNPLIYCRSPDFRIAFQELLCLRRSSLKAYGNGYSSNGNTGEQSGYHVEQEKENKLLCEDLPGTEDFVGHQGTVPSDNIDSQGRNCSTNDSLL

With `CN(CCNC(=O)c1ccc([N+](=O)[O-])cc1)Cc1ccccc1`, the inhibition was 20% in experiment [1]; 3% in experiment [4]; 30% in experiment [11]; 31% in experiment [12]; 23% in [14]. The Activity in experiment [2] was -10%; in experiment [3] it was -1%; in [5], 26%; in experiment [6], -12%; in experiment [7] it was -3%; in [8], 3%. Further, the Activity came to 0% in experiment [9], 14% in experiment [10], 0% in [13] and 0% in [15].
Turning to `CN(CCCNC(=O)c1cccc(Br)c1)Cc1ccccc1`, the inhibition in experiment [1] is 7%; in experiment [4], -2%; in experiment [11] it was 49%; in experiment [12] it was 96%; in experiment [14] it was 26%. The Activity in experiment [2] is 1%; in experiment [3], -2%; in experiment [5], 21%; in [6], -25%; in experiment [7] it was 10%; in experiment [8], 1%. The Activity in experiment [9] is 0%; in experiment [10], -5%; in [13], 1%; in [15], -1%.
Turning to `CCCc1ccc(C(=O)NCCCN(C)Cc2ccccc2)cc1`, the inhibition in [1] was -6%; in experiment [4], 1%; in experiment [11], 22%; in experiment [12], 98%; in [14], 26%. Moreover, the Activity was 55% in experiment [2]; -3% in experiment [3]; 25% in experiment [5]; -19% in [6]; 6% in [7]; 6% in experiment [8]. Besides, the Activity in [9] was 0%; in experiment [10], -2%; in [13] it was 0%; in [15], 0%.
For `CN(CCCNC(=O)c1ccc(Br)cc1)Cc1ccccc1`, the inhibition in [1] was -5%; in experiment [4], -1%; in experiment [11] it was 31%; in experiment [12] it was 89%; in experiment [14] it was 22%. Further, the Activity in experiment [2] was 10%; in [3], 2%; in experiment [5], 9%; in [6], -7%; in experiment [7], 2%; in experiment [8], 2%. Besides, the Activity in experiment [9] was 1%; in [10] it was -7%; in [13], 0%; in experiment [15], 1%.
For `COc1ccc(C(=O)NCCCN(C)Cc2ccccc2)cc1`, the inhibition in experiment [1] stood at 5%; in experiment [4], 0%; in [11], 13%; in experiment [12], 20%; in [14], 23%. For the same molecule, the Activity in experiment [2] is 7%; in experiment [3], 2%; in experiment [5] it was -1%; in experiment [6], -13%; in experiment [7], -12%; in experiment [8], 8%. The Activity in [9] was determined as 0%; in [10] it was 4%; in [13] it was 0%; in experiment [15] it was 0%.
Consider `CN(CCCNC(=O)c1ccc(Cl)cc1)Cc1ccccc1`, for which the inhibition in [1] was -1%; in [4], -6%; in experiment [11], 44%; in [12] it was 89%; in experiment [14] it was 24%. The Activity in experiment [2] was 7%; in [3] it was 1%; in experiment [5], 19%; in experiment [6], -3%; in experiment [7], 4%; in experiment [8] it was 1%. The Activity in experiment [9] was 0%; in [10] it was -7%; in experiment [13] it was 0%; in [15] it was 1%.
`CN(CCCNC(=O)c1ccc([N+](=O)[O-])cc1)Cc1ccccc1`: the inhibition in experiment [1] is -6%; in [4], -4%; in experiment [11] it was 15%; in [12], 85%; in experiment [14], 21%. In addition, the Activity in [2] was 7%; in [3] it was -2%; in experiment [5], 33%; in [6], -11%; in experiment [7], 3%; in experiment [8], -2%. Further, the Activity in [9] was 0%; in experiment [10], -1%; in [13], 0%; in [15] it was -1%.
With `CN(CCCNC(=O)c1ccc(C(F)(F)F)cc1)Cc1ccccc1`, the inhibition in [1] came to 1%; in experiment [4] it was 1%; in experiment [11] it was 30%; in experiment [12], 88%; in experiment [14] it was 28%. The Activity is -1% in experiment [2]; -2% in experiment [3]; 33% in [5]; -22% in experiment [6]; 2% in experiment [7]; 1% in [8]. For the same molecule, the Activity in [9] is 0%; in [10], -4%; in experiment [13] it was 0%; in [15] it was 0%.
